Experimental data as given in patent publication US8293731B2, “HIV integrase inhibitors” (Merck Sharp + Dohme Corp., priority 2005, dated 2012).

Test system: HIV
Test: Assay for inhibition of HIV replication (spread assay): acute HIV infection of T-lymphoid cells
Format: cell-based
Details: Human immunodeficiency virus 1, 'less than about'
Procedure: Assays for the inhibition of acute HIV infection of T-lymphoid cells were conducted in accordance with Vacca, J. P. et al., Proc. Natl. Acad. Set USA 1994, 91: 4096. […] For example, the compounds of Examples 1 to 64 were tested in this assay and found to have IC95 values of less than about 10 micromolar.

Compound	IC95 [µM]
CN1CC(O)C(C)(C)Cn2c(c3c(c(O)c2=O)C(=O)N(Cc2ccc(F)c(Cl)c2)CC3)C1=O (racemic) [Example 38, (4R/S)-11-(3-Chloro-4-fluorobenzyl)-4,9-dihydroxy-2,5,5-trimethyl-3,4,5,6,12,13-hexahydro-2H[1,4]diazocino[2,1-a]-2,6-naphthyridine-1,8,10(11H)-trione]	< 10
CN1CC(O)C(C)(C)Cn2c(c3c(c(O)c2=O)C(=O)N(Cc2ccc(F)c(Cl)c2)CC3)C1=O (racemic) [Example 40, (4R/S)-11-(3-Chloro-4-fluorobenzyl)-4,9-dihydroxy-2,5,5-trimethyl-3,4,5,6,12,13-hexahydro-2H[1,4]diazocino[2,1-a]-2,6-naphthyridine-1,8,10(11H)-trione]	< 10
CN1CC(O)C(C)(C)Cn2c(c3c(c(O)c2=O)C(=O)N(Cc2ccc(F)cc2)CC3)C1=O (racemic) [Example 42, (4R/S)-11-(4-Fluorobenzyl)-4,9-dihydroxy-2,5,5-trimethyl-3,4,5,6,12,13-hexahydro-2H[1,4]diazocino[2,1-a]-2,6-naphthyridine-1,8,10(11H)-trione]	< 10
CN1CC(O)CCn2c(c3c(c(O)c2=O)C(=O)N(Cc2ccc(F)c(Cl)c2)CC3)C1=O (single isomer, unassigned) [Example 23, 11-(3-Chloro-4-fluorobenzyl)-4,9-dihydroxy-2-methyl-3,4,5,6,12,13-hexahydro-2H[1,4]diazocino[2,1-a]-2,6-naphthyridine-1,8,10(11H)-trione]	< 10
CN1CCCCn2c(c3c(c(O)c2=O)C(=O)N(Cc2ccc(F)c(Cl)c2)CC3)C1=O [Example 1, 11-(3-Chloro-4-fluorobenzyl)-9-hydroxy-2-methyl-3,4,5,6,12,13-hexahydro-2H[1,4]diazocino[2,1-a]-2,6-naphthyridine-1,8,10(11H)-trione]	< 10
CN1CCCCn2c(c3c(c(O)c2=O)C(=O)N(Cc2ccc(F)cc2)CC3)C1=O [Example 2, 11-(4-Fluorobenzyl)-9-hydroxy-2-methyl-3,4,5,6,12,13-hexahydro-2H[1,4]diazocino[2,1-a]-2,6-naphthyridine-1,8,10(11H)-trione]	< 10
CN1CCCn2c(c3c(c(O)c2=O)C(=O)N(Cc2ccc(F)c(Cl)c2)CC3)C1=O [Example 3, 10-(3-Chloro-4-fluorobenzyl)-8-hydroxy-2-methyl-2,3,4,5,11,12-hexahydro[1,4]diazepino[2,1-a]-2,6-naphthyridine-1,7,9(10H)-trione]	< 10
O=C1NCCCn2c1c1c(c(O)c2=O)C(=O)N(Cc2ccc(F)c(Cl)c2)CC1 [Example 4, 10-(3-Chloro-4-fluorobenzyl)-8-hydroxy-2,3,4,5,11,12-hexahydro[1,4]diazepino[2,1-a]-2,6-naphthyridine-1,7,9(10H)-trione]	< 10
O=C1NCCn2c1c1c(c(O)c2=O)C(=O)N(Cc2ccc(F)c(Cl)c2)CC1 [Example 5, 9-(3-Chloro-4-fluorobenzyl)-7-hydroxy-3,4,10,11-tetrahydro-2H-pyrazino[2,1-a]-2,6-naphthyridine-1,6,8(9H)-trione]	< 10
CN1CCn2c(c3c(c(O)c2=O)C(=O)N(Cc2ccc(F)c(Cl)c2)CC3)C1=O [Example 6, 9-(3-Chloro-4-fluorobenzyl)-7-hydroxy-2-methyl-3,4,10,11-tetrahydro-2H-pyrazino[2,1-a]-2,6-naphthyridine-1,6,8(9H)-trione]	< 10
O=C1OCCn2c1c1c(c(O)c2=O)C(=O)N(Cc2ccc(F)c(Cl)c2)CC1 [Example 7, 9-(3-Chloro-4-fluorobenzyl)-7-hydroxy-3,4,10,11-tetrahydro[1,4]oxazino[3,4-a]-2,6-naphthyridine-1,6,8(9H)-trione]	< 10
CC1C(=O)N(C)c2c3c(c(O)c(=O)n21)C(=O)N(Cc1ccc(F)c(Cl)c1)CC3 (stereo not drawn) [Example 8, 8-(3-Chloro-4-fluorobenzyl)-6-hydroxy-1,3-dimethyl-1,8,9,10-tetrahydroimidazo[2,1-a]-2,6-naphthyridine-2,5,7(3H)-trione]	< 10
CN1C(=O)C(C)(C)n2c1c1c(c(O)c2=O)C(=O)N(Cc2ccc(F)c(Cl)c2)CC1 [Example 9, 8-(3-Chloro-4-fluorobenzyl)-6-hydroxy-1,3,3-trimethyl-1,8,9,10-tetrahydroimidazo[2,1a]-2,6-naphthyridine-2,5,7(3H)-trione]	< 10
CC(=O)OCCN1CCCCn2c(c3c(c(O)c2=O)C(=O)N(Cc2ccc(F)c(Cl)c2)CC3)C1=O [Example 10, 11-(3-Chloro-4-fluorobenzyl)-9-hydroxy-2-[2-(acetyloxy)ethyl]-3,4,5,6,12,13-hexahydro-2H[1,4]diazocino[2,1-a]-2,6-naphthyridine-1,8,10(11H)-trione]	< 10
O=C1c2c(c3n(c(=O)c2O)CCCCN(CCO)C3=O)CCN1Cc1ccc(F)c(Cl)c1 [Example 11, 11-(3-Chloro-4-fluorobenzyl)-9-hydroxy-2-(2-hydroxyethyl)-3,4,5,6,12,13-hexahydro-2H[1,4]diazocino[2,1-a]-2,6-naphthyridine-1,8,10(11H)-trione]	< 10
O=C(O)CN1CCCCn2c(c3c(c(O)c2=O)C(=O)N(Cc2ccc(F)c(Cl)c2)CC3)C1=O [Example 12, [11-(3-Chloro-4-fluorobenzyl)-9-hydroxy-1,8,10-trioxo-1,3,4,5,6,8,10,11,12,13-deca-hydro-2H-[1,4]diazocino[2,1-a]-2,6-naphthyridin-2-yl]acetic acid]	< 10
CN(C)C(=O)CN1CCCCn2c(c3c(c(O)c2=O)C(=O)N(Cc2ccc(F)c(Cl)c2)CC3)C1=O [Example 13, 2-[11-(3-Chloro-4-fluorobenzyl)-9-hydroxy-1,8,10-trioxo-1,3,4,5,6,8,10,11,12,13-deca-hydro-2H-[1,4]diazocino[2,1-a]-2,6-naphthyridin-2-yl]-N,N-dimethylacetamide]	< 10
CNC(=O)CN1CCCCn2c(c3c(c(O)c2=O)C(=O)N(Cc2ccc(F)c(Cl)c2)CC3)C1=O [Example 14, 2-[11-(3-Chloro-4-fluorobenzyl)-9-hydroxy-1,8,10-trioxo-1,3,4,5,6,8,10,11,12,13-deca-hydro-2H-[1,4]diazocino[2,1-a]-2,6-naphthyridin-2-yl]-N-methylacetamide]	< 10
NC(=O)CN1CCCCn2c(c3c(c(O)c2=O)C(=O)N(Cc2ccc(F)c(Cl)c2)CC3)C1=O [Example 15, 2-[11-(3-Chloro-4-fluorobenzyl)-9-hydroxy-1,8,10-trioxo-1,3,4,5,6,8,10,11,12,13-deca-hydro-2H-[1,4]diazocino[2,1-a]-2,6-naphthyridin-2-yl]acetamide]	< 10
O=C1c2c(c3n(c(=O)c2O)CCCCN(CCN2CCOCC2)C3=O)CCN1Cc1ccc(F)c(Cl)c1 [Example 16, 11-(3-Chloro-4-fluorobenzyl)-9-hydroxy-2-(2-morpholin-4-ylethyl)-3,4,5,6,12,13-hexahydro-2H[1,4]diazocino[2,1a]-2,6-naphthyridine-1,8,10(11H)-trione]	< 10
O=C1c2c(c3n(c(=O)c2O)CCCCN(CCN2CCCC2)C3=O)CCN1Cc1ccc(F)c(Cl)c1 [Example 17, 11-(3-Chloro-4-fluorobenzyl)-9-hydroxy-2-(2-pyrrolidinyl-1-ylethyl)-3,4,5,6,12,13-hexahydro-2H[1,4]diazocino[2,1-a]-2,6-naphthyridine-1,8,10(11H)-trione]	< 10
